SMILES strings stand for the structures.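 Briefly, cells in 96-well plates were exposed to five compound concentrations for 48 h, and endpoints were estimated by linear interpolation. Here, GI50 denotes the concentration required for 50% inhibition of growth. TGI: total growth inhibition.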

One test deals with MCF7 breast. The experiment in a line: NCI-60 cell line screen, 48 h.
In turn, `CNC1(c2cc3ccccc3s2)CCCCC1` returned a TGI of 90.5 µM.

Take `Cc1nc2ccc(Br)cc2c(=O)n1-c1nnc(C(C)(C)C)s1`: the TGI was over 10 µM.

In turn, `Cc1ccc(C2(O)CSC(=NC34CC5CC(CC(C5)C3)C4)N2C(P(=O)(O)O)P(=O)(O)O)cc1` (stereo not given) displayed a TGI of over 100 µM.

As to `CC1(C)C2CCC1(C)C(N/C(Sc1ccccc1)=C(/C(Cl)=C(Cl)Cl)[N+](=O)[O-])C2` (stereo not given), the TGI came to 24 µM.

Turning to `COc1ccc(Cn2c(=O)c(OC)c(C)c3cc4ccccc4cc32)cc1`, the TGI is over 100 µM.

For the compound `N#Cc1c(-c2ccc(Cl)cc2)c2c(n(C3OC(CO)C(O)C(O)C3O)c1=S)CCCC2` (stereo not given), the TGI is over 100 µM.

Regarding `COC(=O)C1Cc2cc3c(cc2C1=O)CCC3` (stereo not given), the TGI was over 100 µM.

`CN(/N=C/c1ccc(C(=O)O)cc1)C1=NCCCCN1` yielded a TGI of over 100 µM.

In the case of `CCOC(=O)c1ccc(N=C/C=C(\Nc2ccc(C(=O)OCC)cc2)C23CC4CC(CC(C4)C2)C3)cc1`, the TGI was over 100 µM.

On to `CC[C@@H](C)[C@H](NC(=O)[C@H](Cc1ccccc1)NCC(F)(F)F)C(=O)OC(C)(C)C`, for which the TGI is over 100 µM.

As to `CC(=O)SCCC(NC(=S)Nc1ccccc1)P(=O)(Oc1ccccc1)Oc1ccccc1` (stereo not given), the TGI was over 100 µM.

Consider `CCOC(=O)Nc1cc2c(c(N)n1)N=C(c1ccc(OC)cc1)CN2`, for which the GI50 is 0.0264 µM and the TGI is over 100 µM.

Compound `Nc1ccccc1CCN1CCN(CCCc2ccccc2)CC1` registered a TGI of over 100 µM.

Compound `CC(C)(C)C1CCC(=O)/C(=C/CC2CC(=O)N(c3ccccc3)C(=O)C2)C1` (stereo not given) had a TGI of 49.5 µM.

In turn, `COc1ccc(-c2c(C(C)=O)c(-c3ccccc3)n(C3OC(CO)C(O)C(O)C3O)c(=S)c2C#N)cc1` (stereo not given) gave a TGI of over 100 µM.

For `CCCCCCCC(CC(=O)NC(CO)C(=O)NC(CO)CC(C)C)OC(=O)CC(CCCCCCC)OC(=O)CC(CCCCCCC)OC1OC(C)C(O)C(OC2OC(C)C(OC(C)=O)C(O)C2O)C1O` (stereo not given), the TGI amounted to 23.8 µM.

The compound `O=C(NN1C(=O)C(Cl)C1c1ccc(Cl)cc1)c1c(Cl)c(Cl)c(Cl)c(Cl)c1-c1nc2ccccc2[nH]1` (stereo not given) yielded a TGI of 34.4 µM.

Another test concerns NCI-H23 lung. Description: NCI-60 cell line screen, 48 h.
The compound `O=C1CS(=O)(=O)C(c2cccc(Oc3ccccc3)c2)N1c1ccc(Cl)cc1` (stereo not given) had a TGI of over 100 µM.

`O=C(O)CO[C@@]12C#C/C=C\C#C[C@@H]3N(C(=O)Oc4ccccc4)c4ccccc4[C@]14O[C@@]34CCC2` displayed a TGI of over 100 µM.

On to `CC(C)(C)C1=C(Br)C(C(C)(C)C)OP1(=O)O` (stereo not given), for which the TGI was over 100 µM.

Compound `CC1C2CC(C(S(=O)(=O)O)C2=O)C1(C)C` (stereo not given) returned a TGI of over 100 µM.

`N[C@@H]1CCN(c2c(F)cc3c(=O)c(C(=O)O)cn4c3c2Oc2c-4ccc3c2ccc2ccccc23)C1` displayed a TGI of over 100 µM.

Consider `Cc1cccc(Cl)c1NCC(O)CN1CCN(C)CC1` (stereo not given), for which the TGI is over 100 µM.

With `CNC1(c2cc3ccccc3s2)CCCCC1`, the TGI was over 100 µM.

The compound `Cc1nc2ccc(Br)cc2c(=O)n1-c1nnc(C(C)(C)C)s1` gave a TGI of over 10 µM.

Regarding `Cc1ccc(C2(O)CSC(=NC34CC5CC(CC(C5)C3)C4)N2C(P(=O)(O)O)P(=O)(O)O)cc1` (stereo not given), the TGI is over 100 µM.

With `CC1(C)C2CCC1(C)C(N/C(Sc1ccccc1)=C(/C(Cl)=C(Cl)Cl)[N+](=O)[O-])C2` (stereo not given), the TGI was 27.6 µM.

`COc1ccc(Cn2c(=O)c(OC)c(C)c3cc4ccccc4cc32)cc1` registered a TGI of 77.5 µM.

In turn, `N#Cc1c(-c2ccc(Cl)cc2)c2c(n(C3OC(CO)C(O)C(O)C3O)c1=S)CCCC2` (stereo not given) had a TGI of over 100 µM.

Compound `COC(=O)C1Cc2cc3c(cc2C1=O)CCC3` (stereo not given) came in with a TGI of over 100 µM.

Compound `CN(/N=C/c1ccc(C(=O)O)cc1)C1=NCCCCN1` returned a TGI of over 100 µM.

With `CCOC(=O)c1ccc(N=C/C=C(\Nc2ccc(C(=O)OCC)cc2)C23CC4CC(CC(C4)C2)C3)cc1`, the TGI is over 100 µM.

On to `C=CCCON(C(=O)OC(C)(C)C)c1ccccc1`, for which the TGI is over 100 µM.

Compound `CC[C@@H](C)[C@H](NC(=O)[C@H](Cc1ccccc1)NCC(F)(F)F)C(=O)OC(C)(C)C` had a TGI of over 100 µM.

In turn, `COC(=O)[C@@H]1C=C[C@H](OC2OC(COC(C)=O)C(OC(C)=O)C(OC(C)=O)C2OC(C)=O)n2c(=O)n(-c3ccccc3)c(=O)n21` (stereo not given in full) yielded a TGI of 14 µM.

The compound `CC(=O)SCCC(NC(=S)Nc1ccccc1)P(=O)(Oc1ccccc1)Oc1ccccc1` (stereo not given) yielded a TGI of over 100 µM.

Compound `Nc1ccccc1CCN1CCN(CCCc2ccccc2)CC1` had a TGI of over 100 µM.

For `CC(C)(C)C1CCC(=O)/C(=C/CC2CC(=O)N(c3ccccc3)C(=O)C2)C1` (stereo not given), the TGI came out at 34.6 µM.

The compound `CC12C=CC(C)(C3C(=O)C4C(C(=O)C31)C1(C)C=CC4(C)S1=O)S2=O` (stereo not given) returned a TGI of over 100 µM.

`COc1ccc(-c2c(C(C)=O)c(-c3ccccc3)n(C3OC(CO)C(O)C(O)C3O)c(=S)c2C#N)cc1` (stereo not given) had a TGI of over 100 µM.

For `CCCCCCCC(CC(=O)NC(CO)C(=O)NC(CO)CC(C)C)OC(=O)CC(CCCCCCC)OC(=O)CC(CCCCCCC)OC1OC(C)C(O)C(OC2OC(C)C(OC(C)=O)C(O)C2O)C1O` (stereo not given), the TGI was 22 µM.

Take `O=C(NN1C(=O)C(Cl)C1c1ccc(Cl)cc1)c1c(Cl)c(Cl)c(Cl)c(Cl)c1-c1nc2ccccc2[nH]1` (stereo not given): the TGI was 69 µM.

In a further test the test system is BT-549 breast. The experiment in a line: NCI-60 cell line screen, 48 h.
In turn, `O=C1CS(=O)(=O)C(c2cccc(Oc3ccccc3)c2)N1c1ccc(Cl)cc1` (stereo not given) yielded a TGI of 90.1 µM.

Regarding `O=C(O)CO[C@@]12C#C/C=C\C#C[C@@H]3N(C(=O)Oc4ccccc4)c4ccccc4[C@]14O[C@@]34CCC2`, the TGI amounted to 69.9 µM.

On to `CC1C2CC(C(S(=O)(=O)O)C2=O)C1(C)C` (stereo not given), for which the TGI was over 100 µM.

The compound `N[C@@H]1CCN(c2c(F)cc3c(=O)c(C(=O)O)cn4c3c2Oc2c-4ccc3c2ccc2ccccc23)C1` registered a TGI of over 100 µM.

`Cc1cccc(Cl)c1NCC(O)CN1CCN(C)CC1` (stereo not given) registered a TGI of over 100 µM.

The compound `CNC1(c2cc3ccccc3s2)CCCCC1` displayed a TGI of over 100 µM.

Consider `Cc1ccc(C2(O)CSC(=NC34CC5CC(CC(C5)C3)C4)N2C(P(=O)(O)O)P(=O)(O)O)cc1` (stereo not given), for which the TGI is over 100 µM.

With `CC1(C)C2CCC1(C)C(N/C(Sc1ccccc1)=C(/C(Cl)=C(Cl)Cl)[N+](=O)[O-])C2` (stereo not given), the TGI worked out at 28.8 µM.

In turn, `COc1ccc(Cn2c(=O)c(OC)c(C)c3cc4ccccc4cc32)cc1` returned a TGI of over 100 µM.

`N#Cc1c(-c2ccc(Cl)cc2)c2c(n(C3OC(CO)C(O)C(O)C3O)c1=S)CCCC2` (stereo not given) had a TGI of over 100 µM.

Compound `COC(=O)C1Cc2cc3c(cc2C1=O)CCC3` (stereo not given) gave a TGI of over 100 µM.

`CN(/N=C/c1ccc(C(=O)O)cc1)C1=NCCCCN1` displayed a TGI of over 100 µM.

`CCOC(=O)c1ccc(N=C/C=C(\Nc2ccc(C(=O)OCC)cc2)C23CC4CC(CC(C4)C2)C3)cc1` returned a TGI of over 100 µM.

`C=CCCON(C(=O)OC(C)(C)C)c1ccccc1` yielded a TGI of over 100 µM.

The compound `CC[C@@H](C)[C@H](NC(=O)[C@H](Cc1ccccc1)NCC(F)(F)F)C(=O)OC(C)(C)C` registered a TGI of over 100 µM.

In the case of `COC(=O)[C@@H]1C=C[C@H](OC2OC(COC(C)=O)C(OC(C)=O)C(OC(C)=O)C2OC(C)=O)n2c(=O)n(-c3ccccc3)c(=O)n21` (stereo not given in full), the TGI came to 6.26 µM.

For the compound `CCOC(=O)Nc1cc2c(c(N)n1)N=C(c1ccc(OC)cc1)CN2`, the TGI was 80.5 µM.

`Nc1ccccc1CCN1CCN(CCCc2ccccc2)CC1` displayed a TGI of over 100 µM.

Compound `CC(C)(C)C1CCC(=O)/C(=C/CC2CC(=O)N(c3ccccc3)C(=O)C2)C1` (stereo not given) came in with a TGI of 44.5 µM.

As to `CC12C=CC(C)(C3C(=O)C4C(C(=O)C31)C1(C)C=CC4(C)S1=O)S2=O` (stereo not given), the TGI is over 100 µM.

`CCCCCCCC(CC(=O)NC(CO)C(=O)NC(CO)CC(C)C)OC(=O)CC(CCCCCCC)OC(=O)CC(CCCCCCC)OC1OC(C)C(O)C(OC2OC(C)C(OC(C)=O)C(O)C2O)C1O` (stereo not given) had a TGI of 19.6 µM.

In the case of `O=C(NN1C(=O)C(Cl)C1c1ccc(Cl)cc1)c1c(Cl)c(Cl)c(Cl)c(Cl)c1-c1nc2ccccc2[nH]1` (stereo not given), the TGI amounted to 77.8 µM.

The values are drawn from PubChem BioAssay (NCI).
